Experimental data reported in patent US20130005699A1, “METHODS AND PRODUCTS FOR TREATMENT OF DISEASES” (DMI ACQUISITION CORP., priority 2009, published 2013).
Read-outs that look alike come from different tables or passages of the source.

How the values were obtained:
[1] = test system: human retinal endothelial cells; test: TER of endothelial cell monolayers (Example 4), retinal; type: cell-based; details: Danazol 1.0 μM, TER measurements/cm^2 of insert, blank subtracted
Procedure: (§1) […]. Assays were also performed in the same manner using passage 8 human brain endothelial cells and passage 8 human umbilical vein endothelial cells.
(§2) An initial TER measurement was taken for each insert using EVOM^2 voltohmmeter connected to an STX100 electrode (both from World Precision Instruments). Measurements were also taken at 24, 48, 72 and 144 hours. All data are presented as TER measurements/cm^2 of insert with TER of blank inserts subtracted.

[2] = test system: human retinal endothelial cells; test: TER of retinal endothelial cell monolayers with danazol, steroid receptor antagonists and hormones (Example 10); details: 0.1 μM of each additive, background subtracted, divided by 0.33 cm^2
[3] = test system: human renal glomerular microvascular endothelial cells; test: Actin stress fiber formation (Example 11), glomerular cells; details: for F-actin staining pattern: danazol 1 μM alone
[4] = test system: human retinal endothelial cells; test: TER of retinal endothelial cell monolayers with danazol and steroid receptor antagonists (Example 6); details: 0.1 μM of each additive, background subtracted, divided by 0.33 cm^2
[5] = test system: Human Brain Endothelial Cells; test: TER of endothelial cell monolayers (Example 4), brain; type: cell-based; details: Danazol 1.0 μM, TER measurements/cm^2 of insert, blank subtracted
Procedure: as §1, §2

[6] = test system: Primary human umbilical vein endothelial cells (HUVECs); test: HUVEC cell proliferation (Celltiter 96 AQueous One Solution assay); type: cell-based
Procedure: Primary human umbilical vein endothelial cells (HUVECs) and EGM-2 growth medium were obtained from Cambrex (Walkersville, Md.). The cells were passaged in medium supplemented with 2% fetal calf serum (FCS) in tissue culture flasks at 37° C. and 5% CO2. Subculturing was performed using trypsin when 60-80% confluence was obtained as specified by the supplier.
Cryopreserved ampoules of passage 2 HUVECs were thawed and plated in 96 well tissue culture plates at 5,000 cells/cm^2. […] In short, medium was aspirated from each well and the cells were washed with 200 μl […] (HBSS) from Cambrex warmed to 37° C. 100 μl diluted celltiter solution (15 μl stock+85 μl EGM-2 containing 0.1% FCS) were added to each well and incubated for an additional 4 hours. Optical density was determined by microplate reader using a 530 nm filter after blank subtraction and data presented as OD±standard deviation.
All data are presented as representative experiment done in triplicate. Differences between subsets were analyzed using student t-test in Microsoft Excel. P<0.05 was considered statistically significant.

[7] = test system: human retinal endothelial cells; test: ECIS resistance (Example 12), retinal cells
[8] = test system: human renal glomerular microvascular endothelial cells; test: ECIS resistance (Example 13), glomerular cells, medium without dexamethasone
HUVECs = test: HUVEC invasion (BioCoat Matrigel Invasion Chambers); type: cell-based, human; details: 24 hours
Procedure: BioCoat Matrigel Invasion Chambers were purchased from BD Biosciences (San Jose, Calif.). Inserts were rehydrated at 37° C. with 500 μl HBSS for 2 hours prior to use in humidified incubator. Trypsinized HUVECs were washed twice with warm EGM-2 containing 0.1% FCS and added to the upper chamber of the invasion insert at 100,000 cells in a total volume of 250 μl. […]. Non-invasive cells were removed from the upper chamber with moistened cotton swabs and then the inserts were washed twice with HBSS. The inserts were then submerged in 10 μM calcein AM prepared in HBSS and incubated for 4 hours. Fluorescence was determined in a microplate reader at 485 nm excitation and 595 nm emission.
All data is presented as representative experiment done in triplicate. Differences between subsets were analyzed using student t-test in Microsoft Excel. P<0.05 was considered statistically significant.

[9] = test system: Human Umbilical Vein Endothelial Cells; test: TER of endothelial cell monolayers (Example 4), umbilical vein; type: cell-based; details: Danazol 1.0 μM, TER measurements/cm^2 of insert, blank subtracted
Procedure: as §1, §2

[10] = Homo sapiens, HUVEC, 24 h, read-out: percent inhibition
[11] = Homo sapiens, HUVEC, 48 h, read-out: percent inhibition
[12] = Homo sapiens, HUVEC, 72 h, read-out: inhibition

C#C[C@]1(O)CC[C@H]2[C@@H]3CCC4=Cc5oncc5C[C@]4(C)[C@H]3CC[C@@]21C [Danazol, 17α-pregna-2,4-dien-20-yno[2,3-d]-isoxazol-17β-ol]
TER at 0 Hours ([1]; None 32.3): 21.7
TER at 24 Hours ([1]; None 96.0): 132.3
TER at 48 Hours ([1]; None 144.4): 182.3
TER at 72 Hours ([1]; None 148.0): 217.7
TER at 144 Hours ([1]; None 219.7): 234.8
TER at 5 minutes ([2]; None 250.30): 280.03
TER at 60 minutes ([2]; None 251.00): 313.06
TER at 30 minutes ([2]; None 262.31): 311.56
TER at 24 Hours ([2]; None 287.09): 348.35
F-actin staining pattern ([3]; 15 minutes): perinuclear staining
F-actin staining pattern ([3]; 3 hours): diffuse staining throughout the cells with ruffled edges on many of the cells
F-actin staining pattern ([3]; 24 hours): staining similar to untreated controls
effect on S1P-induced cortical actin rings ([3]; danazol 1 μM with S1P 1 μM): seemed to enhance the cortical rings
effect on TNFα-induced stress fibers ([3]; danazol 1 μM with TNFα 1 ng/ml, all times): decreased the stress fiber formation and the thickness of the fibers at all times
TER at 30 minutes ([4]; None 216.22): 255.26
TER at 120 minutes ([4]; None 234.23): 249.35
TER at 60 minutes ([4]; None 249.25): 267.27
TER at 24 Hours ([4]; None 312.31): 366.37
TER at 0 Hours ([5]; None 41.4): 32.3
TER at 24 Hours ([5]; None 115.7): 139.9
TER at 144 Hours ([5]; None 151.5): 125.8
TER at 72 Hours ([5]; None 154.0): 149.5
TER at 48 Hours ([5]; None 176.3): 188.4
OD ([6]; 0.1 μM danazol, 72 hours, nil wells 1.113±0.054): 0.798±0.037
OD ([6]; 1 μM danazol, 48 hours, nil 0.629±0.095): 0.378±0.037
OD ([6]; 1 μM danazol, 72 hours, nil wells 1.113±0.054): 0.484±0.022
OD ([6]; 10 μM danazol, 24 hours, nil wells 0.414±0.06): 0.288±0.037
OD ([6]; 10 μM danazol, 48 hours, nil 0.629±0.095): 0.241±0.012
OD ([6]; 10 μM danazol, 72 hours, nil wells 1.113±0.054): 0.229±0.016
OD ([6]; 100 μM danazol, 24 hours, nil wells 0.414±0.06): 0.162±0.017
OD ([6]; 100 μM danazol, 48 hours, nil 0.629±0.095): 0.19±0.033
OD ([6]; 100 μM danazol, 72 hours, nil wells 1.113±0.054): 0.156±0.018
effect on cell proliferation ([6]; 100 μM danazol, all time points): complete arrest of cell proliferation
inhibition at 10 µM [6, 10]: 30%
inhibition at 100 µM [6, 10]: 65%
inhibition at 1 µM [6, 11]: 40%
inhibition at 10 µM [6, 11]: 61%
inhibition at 100 µM [6, 11]: 70%
inhibition at 0.1 µM ([6]; Homo sapiens, HUVEC, 72 h): 28%
inhibition at 1 µM [6, 12]: 57%
inhibition at 10 µM [6, 12]: 80%
inhibition at 100 µM [6, 12]: 86%
start of increase of ECIS compared to untreated cells, after treatment ([7]; 1.0 μM danazol alone): 1.5 to 2.0 h
persistence of increased ECIS ([7]; 1 μM of each compound, monitored for 90 hours): 5 h
persistence of increased ECIS ([8]; danazol 1 μM alone): about 90 hours
start of increase of ECIS compared to untreated cells ([8]; danazol 1 μM alone): about 3 hours
enhancement of ECIS (TER) compared to dexamethasone ([8]; danazol 1 μM versus dexamethasone 1 μM): not as great
effect on FCS-induced cell invasion (HUVECs; 10 μM): no effect
effect on FCS-induced cell invasion (HUVECs; 100 μM): no effect
TER at 0 Hours ([9]; None 82.3): 70.2
TER at 24 Hours ([9]; None 217.2): 246.0
TER at 72 Hours ([9]; None 226.8): 270.7
TER at 144 Hours ([9]; None 227.3): 286.4
TER at 48 Hours ([9]; None 276.3): 364.1
